System: HEK293 cells
Assay: Preliminary screening as mRNA vectors, EGFP mRNA transfection of HEK293 cells
Assay type: cell-based
Conditions: EGFP mRNA 50 ng per well, 96-well plates; percentage of GFP fluorescent cells relative to total number of cells (Hoechst)
Outline: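 Each well of HEK293 cells received 50 ng of EGFP mRNA. Efficiency was expressed as percent GFP-expressing cells over Hoechst-defined total cell number.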

| SMILES | Absolute mRNA transfection efficiency in HEK293 cells |
| --- | --- |
| CCCCCCCCCCCCCCCSc1nc(NCCCCCCC)nc(NCCN2CCOCC2)n1 [Compound D2S15N7] | 4.5% |
| CCCCCCCCCCCCCCCSc1nc(NCCCCCCCC)nc(NCCN2CCOCC2)n1 [Compound D2S15N8] | 2.2% |
| CCCCCCCCCCCCCCCSc1nc(NCCCCCCCCC)nc(NCCN2CCOCC2)n1 [Compound D2S15N9] | 1.1% |
| CCCCCCCCCCCCCCCSc1nc(NCCCCCCCCCCC)nc(NCCN2CCOCC2)n1 [Compound D2S15N11] | 3.3% |
| CCCCCCCCCCCCCCCSc1nc(NCCCCCCCCCCCC)nc(NCCN2CCOCC2)n1 [Compound D2S15N12] | 0.1% |
| CCCCCCCCCCCCCCCSc1nc(NCCCCCCCCCCCCC)nc(NCCN2CCOCC2)n1 [Compound D2S15N13] | 0.1% |
| CCCCCCCCCCCCCCCNc1nc(NCCN2CCOCC2)nc(SCCCCCCCCCCCCCCC)n1 [Compound D2S15N15] | 0.2% |
| CCCCCCCCCCCCCCCCNc1nc(NCCN2CCOCC2)nc(SCCCCCCCCCCCCCCC)n1 [Compound D2S15N16] | 1.4% |
| CCCCCCCCCCCCCCCCCCNc1nc(NCCN2CCOCC2)nc(SCCCCCCCCCCCCCCC)n1 [Compound D2S15N18] | 0.3% |
| CCCCCCCCCCCCCCCCSc1nc(NCCCCCC)nc(NCCN2CCOCC2)n1 [Compound D2S16N6] | 23.6% |
| CCCCCCCCCCCCCCCCSc1nc(NCCCCCCC)nc(NCCN2CCOCC2)n1 [Compound D2S16N7] | 10.0% |
| CCCCCCCCCCCCCCCCSc1nc(NCCCCCCCC)nc(NCCN2CCOCC2)n1 [Compound D2S16N8] | 19.1% |
| CCCCCCCCCCCCCCCCSc1nc(NCCCCCCCCC)nc(NCCN2CCOCC2)n1 [Compound D2S16N9] | 7.2% |
| CCCCCCCCCCCCCCCCSc1nc(NCCCCCCCCCCC)nc(NCCN2CCOCC2)n1 [Compound D2S16N11] | 4.1% |
| CCCCCCCCCCCCCCCCSc1nc(NCCCCCCCCCCCC)nc(NCCN2CCOCC2)n1 [Compound D2S16N12] | 1.2% |
| CCCCCCCCCCCCCCCCSc1nc(NCCCCCCCCCCCCC)nc(NCCN2CCOCC2)n1 [Compound D2S16N13] | 0.0% |
| CCCCCCCCCCCCCCCCSc1nc(NCCCCCCCCCCCCCCC)nc(NCCN2CCOCC2)n1 [Compound D2S16N15] | 0.2% |
| CCCCCCCCCCCCCCCCNc1nc(NCCN2CCOCC2)nc(SCCCCCCCCCCCCCCCC)n1 [Compound D2S16N16] | 0.0% |
| CCCCCCCCCCCCCCCCCCNc1nc(NCCN2CCOCC2)nc(SCCCCCCCCCCCCCCCC)n1 [Compound D2S16N18] | 0.0% |
| CCCCCCCCCCCCCCCCCCSc1nc(NCCCCCC)nc(NCCN2CCOCC2)n1 [Compound D2S18N6] | 0.4% |
| CCCCCCCCCCCCCCCCCCSc1nc(NCCCCCCC)nc(NCCN2CCOCC2)n1 [Compound D2S18N7] | 1.0% |

| SMILES | Absolute mRNA transfection efficiency in HEK293 cells |
| --- | --- |
| CCCCCCCCCCCCCCCCCCSc1nc(NCCCCCCCC)nc(NCCN2CCOCC2)n1 [Compound D2S18N8] | 3.1% |
| CCCCCCCCCCCCCCCCCCSc1nc(NCCCCCCCCC)nc(NCCN2CCOCC2)n1 [Compound D2S18N9] | 0.4% |
| CCCCCCCCCCCCCCCCCCSc1nc(NCCCCCCCCCCC)nc(NCCN2CCOCC2)n1 [Compound D2S18N11] | 0.5% |
| CCCCCCCCCCCCCCCCCCSc1nc(NCCCCCCCCCCCC)nc(NCCN2CCOCC2)n1 [Compound D2S18N12] | 2.3% |
| CCCCCCCCCCCCCCCCCCSc1nc(NCCCCCCCCCCCCC)nc(NCCN2CCOCC2)n1 [Compound D2S18N13] | 0.0% |
| CCCCCCCCCCCCCCCCCCSc1nc(NCCCCCCCCCCCCCCC)nc(NCCN2CCOCC2)n1 [Compound D2S18N15] | 0.0% |
| CCCCCCCCCCCCCCCCCCSc1nc(NCCCCCCCCCCCCCCCC)nc(NCCN2CCOCC2)n1 [Compound D2S18N16] | 0.0% |
| CCCCCCCCCCCCCCCCCCNc1nc(NCCN2CCOCC2)nc(SCCCCCCCCCCCCCCCCCC)n1 [Compound D2S18N18] | 0.0% |
| CCCCCCNc1nc(NCCN2CCCC2)nc(SCCCCCC)n1 [Compound D3S6N6] | 0.1% |
| CCCCCCCNc1nc(NCCN2CCCC2)nc(SCCCCCC)n1 [Compound D3S6N7] | 0.2% |
| CCCCCCCCNc1nc(NCCN2CCCC2)nc(SCCCCCC)n1 [Compound D3S6N8] | 0.0% |
| CCCCCCCCCNc1nc(NCCN2CCCC2)nc(SCCCCCC)n1 [Compound D3S6N9] | 0.3% |
| CCCCCCCCCCCNc1nc(NCCN2CCCC2)nc(SCCCCCC)n1 [Compound D3S6N11] | 0.7% |
| CCCCCCCCCCCCNc1nc(NCCN2CCCC2)nc(SCCCCCC)n1 [Compound D3S6N12] | 4.1% |
| CCCCCCCCCCCCCNc1nc(NCCN2CCCC2)nc(SCCCCCC)n1 [Compound D3S6N13] | 7.7% |
| CCCCCCCCCCCCCCCNc1nc(NCCN2CCCC2)nc(SCCCCCC)n1 [Compound D3S6N15] | 14.4% |
| CCCCCCCCCCCCCCCCNc1nc(NCCN2CCCC2)nc(SCCCCCC)n1 [Compound D3S6N16] | 37.3% |
| CCCCCCCCCCCCCCCCCCNc1nc(NCCN2CCCC2)nc(SCCCCCC)n1 [Compound D3S6N18] | 32.5% |
| CCCCCCSc1nc(NCCN2CCCC2)nc(SCCCCCC)n1 [Compound D3S6S6] | 1.9% |
| CCCCCCCSc1nc(NCCN2CCCC2)nc(SCCCCCC)n1 [Compound D3S6S7] | 1.3% |
| CCCCCCCCSc1nc(NCCN2CCCC2)nc(SCCCCCC)n1 [Compound D3S6S8] | 1.6% |

| SMILES | Absolute mRNA transfection efficiency in HEK293 cells |
| --- | --- |
| CCCCCCCCCSc1nc(NCCN2CCCC2)nc(SCCCCCC)n1 [Compound D3S6S9] | 2.6% |
| CCCCCCCCCCSc1nc(NCCN2CCCC2)nc(SCCCCCC)n1 [Compound D3S6S10] | 2.5% |
| CCCCCCCCCCCSc1nc(NCCN2CCCC2)nc(SCCCCCC)n1 [Compound D3S6S11] | 0.7% |
| CCCCCCCCCCCCSc1nc(NCCN2CCCC2)nc(SCCCCCC)n1 [Compound D3S6S12] | 1.0% |
| CCCCCCCCCCCCCCSc1nc(NCCN2CCCC2)nc(SCCCCCC)n1 [Compound D3S6S14] | 0.3% |
| CCCCCCCCCCCCCCCSc1nc(NCCN2CCCC2)nc(SCCCCCC)n1 [Compound D3S6S15] | 12.0% |
| CCCCCCCCCCCCCCCCSc1nc(NCCN2CCCC2)nc(SCCCCCC)n1 [Compound D3S6S16] | 16.9% |
| CCCCCCCCCCCCCCCCCCSc1nc(NCCN2CCCC2)nc(SCCCCCC)n1 [Compound D3S6S18] | 36.8% |
| CCCCCCCSc1nc(NCCCCCC)nc(NCCN2CCCC2)n1 [Compound D3S7N6] | 5.8% |
| CCCCCCCNc1nc(NCCN2CCCC2)nc(SCCCCCCC)n1 [Compound D3S7N7] | 6.6% |
| CCCCCCCCNc1nc(NCCN2CCCC2)nc(SCCCCCCC)n1 [Compound D3S7N8] | 1.3% |
| CCCCCCCCCNc1nc(NCCN2CCCC2)nc(SCCCCCCC)n1 [Compound D3S7N9] | 2.8% |
| CCCCCCCCCCCNc1nc(NCCN2CCCC2)nc(SCCCCCCC)n1 [Compound D3S7N11] | 9.6% |
| CCCCCCCCCCCCNc1nc(NCCN2CCCC2)nc(SCCCCCCC)n1 [Compound D3S7N12] | 6.5% |
| CCCCCCCCCCCCCNc1nc(NCCN2CCCC2)nc(SCCCCCCC)n1 [Compound D3S7N13] | 19.1% |
| CCCCCCCCCCCCCCCNc1nc(NCCN2CCCC2)nc(SCCCCCCC)n1 [Compound D3S7N15] | 33.7% |
| CCCCCCCCCCCCCCCCNc1nc(NCCN2CCCC2)nc(SCCCCCCC)n1 [Compound D3S7N16] | 25.0% |
| CCCCCCCCCCCCCCCCCCNc1nc(NCCN2CCCC2)nc(SCCCCCCC)n1 [Compound D3S7N18] | 39.8% |
| CCCCCCCSc1nc(NCCN2CCCC2)nc(SCCCCCCC)n1 [Compound D3S7S7] | 12.2% |
| CCCCCCCCSc1nc(NCCN2CCCC2)nc(SCCCCCCC)n1 [Compound D3S7S8] | 2.7% |

Reference: patent publication US20230123334A1, “AMINO LIPID COMPOUND, PREPARATION METHOD THEREFOR, AND APPLICATION THEREOF” (SHENZHEN SHENXIN BIOTECHNOLOGY CO., LTD., priority 2020, published 2023)
